From ChEMBL document CHEMBL5291721, “A preclinical secondary pharmacology resource illuminates target-adverse drug reaction associations of marketed drugs” (Nat Commun, 2023) come the findings set out here.

The target in assay [1] is Gamma-aminobutyric acid receptor subunit alpha-1/alpha-2/beta-2/gamma-2 (Homo sapiens, UniProt P14867+P18507+P47869+P47870). The assay is classed as functional, cell-based.
Assay [2] addresses T1, Muscarinic acetylcholine receptor M2 (Homo sapiens, UniProt P08172).
T1 sequence (P08172 whole entry): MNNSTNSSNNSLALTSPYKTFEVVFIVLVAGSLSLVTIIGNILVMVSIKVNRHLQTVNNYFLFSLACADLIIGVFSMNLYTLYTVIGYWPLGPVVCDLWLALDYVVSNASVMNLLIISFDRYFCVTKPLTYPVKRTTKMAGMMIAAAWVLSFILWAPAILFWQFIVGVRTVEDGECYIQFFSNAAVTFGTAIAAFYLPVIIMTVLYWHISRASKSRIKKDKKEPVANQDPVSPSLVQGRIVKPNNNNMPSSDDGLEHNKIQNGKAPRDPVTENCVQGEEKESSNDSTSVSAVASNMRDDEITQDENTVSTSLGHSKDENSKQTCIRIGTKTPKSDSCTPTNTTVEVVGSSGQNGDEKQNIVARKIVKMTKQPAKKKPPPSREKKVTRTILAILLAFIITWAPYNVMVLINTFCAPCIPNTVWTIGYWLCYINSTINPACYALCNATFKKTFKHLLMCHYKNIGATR

Another assay concerns the target T2, Progesterone receptor (Homo sapiens, UniProt P06401).
T2 sequence (P06401 whole entry): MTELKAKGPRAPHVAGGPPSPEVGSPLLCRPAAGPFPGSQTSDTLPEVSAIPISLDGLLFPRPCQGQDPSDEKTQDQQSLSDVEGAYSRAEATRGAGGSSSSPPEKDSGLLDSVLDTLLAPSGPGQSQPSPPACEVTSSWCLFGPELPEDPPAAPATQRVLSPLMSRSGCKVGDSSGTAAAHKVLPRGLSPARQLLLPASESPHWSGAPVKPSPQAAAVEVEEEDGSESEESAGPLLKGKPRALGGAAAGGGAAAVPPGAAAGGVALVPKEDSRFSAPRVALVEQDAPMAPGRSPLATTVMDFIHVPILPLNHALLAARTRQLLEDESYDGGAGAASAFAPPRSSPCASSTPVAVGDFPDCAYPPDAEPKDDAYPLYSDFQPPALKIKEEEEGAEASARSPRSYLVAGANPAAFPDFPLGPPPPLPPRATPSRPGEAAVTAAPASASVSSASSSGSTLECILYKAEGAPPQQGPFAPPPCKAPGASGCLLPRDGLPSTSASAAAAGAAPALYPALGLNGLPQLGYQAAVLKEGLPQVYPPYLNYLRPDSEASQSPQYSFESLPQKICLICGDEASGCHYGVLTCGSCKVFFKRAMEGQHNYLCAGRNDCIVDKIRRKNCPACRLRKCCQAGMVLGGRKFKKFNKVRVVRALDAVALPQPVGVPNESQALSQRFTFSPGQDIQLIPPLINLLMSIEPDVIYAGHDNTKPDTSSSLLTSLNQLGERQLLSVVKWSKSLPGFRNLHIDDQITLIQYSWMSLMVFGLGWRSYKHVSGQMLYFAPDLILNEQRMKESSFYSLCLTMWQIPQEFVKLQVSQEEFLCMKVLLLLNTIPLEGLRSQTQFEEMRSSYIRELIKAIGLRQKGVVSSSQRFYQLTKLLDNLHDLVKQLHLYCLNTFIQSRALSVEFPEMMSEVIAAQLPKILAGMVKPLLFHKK

In assay [3] the target is Beta-3 adrenergic receptor (Homo sapiens, UniProt P13945).
Beta-3 adrenergic receptor, sequence (P13945 whole entry): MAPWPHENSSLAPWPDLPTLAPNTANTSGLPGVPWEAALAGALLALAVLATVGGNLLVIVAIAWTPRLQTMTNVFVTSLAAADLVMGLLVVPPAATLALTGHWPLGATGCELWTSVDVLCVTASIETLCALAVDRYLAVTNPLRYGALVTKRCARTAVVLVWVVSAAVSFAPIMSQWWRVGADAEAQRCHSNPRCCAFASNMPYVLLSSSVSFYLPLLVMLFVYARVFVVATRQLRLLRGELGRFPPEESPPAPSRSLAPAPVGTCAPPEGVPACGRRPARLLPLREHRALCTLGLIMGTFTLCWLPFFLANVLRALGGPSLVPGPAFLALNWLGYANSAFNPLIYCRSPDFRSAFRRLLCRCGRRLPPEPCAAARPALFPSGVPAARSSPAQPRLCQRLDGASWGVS
Assay [4] addresses T3, Androgen receptor (Rattus norvegicus, UniProt P15207).
T3 sequence (P15207 whole entry): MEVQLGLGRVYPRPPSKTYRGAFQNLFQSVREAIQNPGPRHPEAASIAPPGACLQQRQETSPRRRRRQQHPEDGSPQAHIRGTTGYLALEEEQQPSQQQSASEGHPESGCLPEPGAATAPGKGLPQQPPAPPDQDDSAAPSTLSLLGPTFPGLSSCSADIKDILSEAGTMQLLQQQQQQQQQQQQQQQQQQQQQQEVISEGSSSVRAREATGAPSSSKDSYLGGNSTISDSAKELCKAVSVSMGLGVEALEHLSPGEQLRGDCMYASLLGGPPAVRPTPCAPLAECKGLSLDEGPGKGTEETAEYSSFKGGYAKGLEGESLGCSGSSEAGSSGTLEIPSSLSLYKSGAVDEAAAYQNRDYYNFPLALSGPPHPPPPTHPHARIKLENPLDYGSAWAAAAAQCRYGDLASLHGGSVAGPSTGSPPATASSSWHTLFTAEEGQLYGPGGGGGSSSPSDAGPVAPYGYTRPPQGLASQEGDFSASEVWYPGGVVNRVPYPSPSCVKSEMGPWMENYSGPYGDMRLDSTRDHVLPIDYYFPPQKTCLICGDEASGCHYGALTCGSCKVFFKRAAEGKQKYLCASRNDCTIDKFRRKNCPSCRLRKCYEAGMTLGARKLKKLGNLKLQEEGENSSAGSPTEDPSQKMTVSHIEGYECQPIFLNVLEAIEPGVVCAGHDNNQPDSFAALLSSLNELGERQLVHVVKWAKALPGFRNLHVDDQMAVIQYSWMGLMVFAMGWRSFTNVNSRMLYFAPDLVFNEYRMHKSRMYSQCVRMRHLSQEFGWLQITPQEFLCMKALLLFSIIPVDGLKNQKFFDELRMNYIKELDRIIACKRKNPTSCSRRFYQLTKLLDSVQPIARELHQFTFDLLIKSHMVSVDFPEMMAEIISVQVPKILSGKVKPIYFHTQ

In the next assay the target is D(1A) dopamine receptor (Homo sapiens, UniProt P21728).
D(1A) dopamine receptor, sequence (P21728 whole entry): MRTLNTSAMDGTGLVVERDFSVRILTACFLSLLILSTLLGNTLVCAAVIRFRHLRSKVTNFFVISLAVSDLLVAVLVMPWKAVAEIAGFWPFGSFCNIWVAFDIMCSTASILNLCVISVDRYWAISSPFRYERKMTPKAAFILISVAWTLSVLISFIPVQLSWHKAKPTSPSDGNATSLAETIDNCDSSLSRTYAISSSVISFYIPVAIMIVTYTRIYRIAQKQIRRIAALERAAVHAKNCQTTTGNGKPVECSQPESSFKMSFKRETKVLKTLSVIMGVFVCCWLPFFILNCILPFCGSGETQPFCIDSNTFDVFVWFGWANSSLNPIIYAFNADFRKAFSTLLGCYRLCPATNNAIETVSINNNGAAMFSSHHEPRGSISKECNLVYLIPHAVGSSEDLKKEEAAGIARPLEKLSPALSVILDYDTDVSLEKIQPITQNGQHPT
In assay [5] the target is T4, 5-hydroxytryptamine receptor 1A (Homo sapiens, UniProt P08908).
T4 sequence (P08908 whole entry): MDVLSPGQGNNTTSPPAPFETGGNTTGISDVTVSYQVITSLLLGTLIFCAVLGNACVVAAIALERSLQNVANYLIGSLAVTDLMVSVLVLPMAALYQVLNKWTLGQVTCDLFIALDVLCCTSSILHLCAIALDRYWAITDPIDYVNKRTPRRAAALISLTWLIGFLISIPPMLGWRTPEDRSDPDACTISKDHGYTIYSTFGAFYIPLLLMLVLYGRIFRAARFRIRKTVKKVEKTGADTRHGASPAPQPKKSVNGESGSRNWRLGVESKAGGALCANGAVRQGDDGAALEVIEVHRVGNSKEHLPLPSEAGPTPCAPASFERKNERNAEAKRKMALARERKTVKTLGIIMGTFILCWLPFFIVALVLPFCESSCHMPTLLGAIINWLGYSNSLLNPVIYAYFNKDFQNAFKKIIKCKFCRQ

The target of assay [6] is T3, Androgen receptor. Type of assay: functional.
In assay [7] the target is T3, Androgen receptor. Type of assay: functional. The source holds these as a separate data set.
Further: assay procedure not described here.

Gamma-aminobutyric acid receptor subunit alpha-1/alpha-2/beta-2/gamma-2, sequence (P14867 whole entry): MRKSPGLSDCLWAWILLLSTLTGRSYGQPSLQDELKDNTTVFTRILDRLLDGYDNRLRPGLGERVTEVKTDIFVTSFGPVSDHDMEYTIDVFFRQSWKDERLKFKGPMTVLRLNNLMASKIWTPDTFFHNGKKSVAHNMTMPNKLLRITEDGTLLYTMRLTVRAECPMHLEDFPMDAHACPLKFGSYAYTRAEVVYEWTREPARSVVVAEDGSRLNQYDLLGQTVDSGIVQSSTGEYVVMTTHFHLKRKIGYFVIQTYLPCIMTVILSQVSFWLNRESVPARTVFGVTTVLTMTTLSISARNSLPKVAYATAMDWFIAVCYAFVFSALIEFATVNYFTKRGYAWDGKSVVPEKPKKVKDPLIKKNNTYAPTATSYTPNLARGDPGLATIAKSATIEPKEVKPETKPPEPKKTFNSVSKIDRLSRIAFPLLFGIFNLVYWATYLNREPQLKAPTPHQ
Gamma-aminobutyric acid receptor subunit alpha-1/alpha-2/beta-2/gamma-2, sequence (P47870 whole entry): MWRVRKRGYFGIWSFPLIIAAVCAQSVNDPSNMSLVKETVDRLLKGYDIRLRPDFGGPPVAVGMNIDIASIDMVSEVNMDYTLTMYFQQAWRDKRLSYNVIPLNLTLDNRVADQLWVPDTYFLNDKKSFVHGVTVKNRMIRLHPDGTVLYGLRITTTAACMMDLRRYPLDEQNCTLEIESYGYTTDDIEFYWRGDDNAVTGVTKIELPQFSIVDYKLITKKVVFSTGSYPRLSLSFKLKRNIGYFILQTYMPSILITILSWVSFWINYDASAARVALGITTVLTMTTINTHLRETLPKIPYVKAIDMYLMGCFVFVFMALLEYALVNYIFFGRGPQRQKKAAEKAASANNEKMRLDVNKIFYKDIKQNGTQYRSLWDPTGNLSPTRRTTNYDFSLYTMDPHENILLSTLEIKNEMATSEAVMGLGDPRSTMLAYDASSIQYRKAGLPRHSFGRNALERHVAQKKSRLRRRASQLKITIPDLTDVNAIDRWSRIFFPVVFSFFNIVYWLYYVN
Gamma-aminobutyric acid receptor subunit alpha-1/alpha-2/beta-2/gamma-2, sequence (P18507 whole entry): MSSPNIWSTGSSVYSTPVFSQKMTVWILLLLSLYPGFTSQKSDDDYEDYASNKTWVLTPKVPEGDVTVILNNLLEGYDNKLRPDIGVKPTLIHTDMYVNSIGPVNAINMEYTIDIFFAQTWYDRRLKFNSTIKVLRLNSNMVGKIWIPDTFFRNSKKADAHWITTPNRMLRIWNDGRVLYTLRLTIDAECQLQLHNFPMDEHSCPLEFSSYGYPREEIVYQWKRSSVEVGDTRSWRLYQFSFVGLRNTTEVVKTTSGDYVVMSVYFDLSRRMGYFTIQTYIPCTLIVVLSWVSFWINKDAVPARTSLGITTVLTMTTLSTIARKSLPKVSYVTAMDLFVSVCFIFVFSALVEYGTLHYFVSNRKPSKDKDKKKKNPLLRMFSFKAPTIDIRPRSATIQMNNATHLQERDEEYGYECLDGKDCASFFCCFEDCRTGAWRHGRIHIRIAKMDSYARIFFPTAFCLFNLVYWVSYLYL
Gamma-aminobutyric acid receptor subunit alpha-1/alpha-2/beta-2/gamma-2, sequence (P47869 whole entry): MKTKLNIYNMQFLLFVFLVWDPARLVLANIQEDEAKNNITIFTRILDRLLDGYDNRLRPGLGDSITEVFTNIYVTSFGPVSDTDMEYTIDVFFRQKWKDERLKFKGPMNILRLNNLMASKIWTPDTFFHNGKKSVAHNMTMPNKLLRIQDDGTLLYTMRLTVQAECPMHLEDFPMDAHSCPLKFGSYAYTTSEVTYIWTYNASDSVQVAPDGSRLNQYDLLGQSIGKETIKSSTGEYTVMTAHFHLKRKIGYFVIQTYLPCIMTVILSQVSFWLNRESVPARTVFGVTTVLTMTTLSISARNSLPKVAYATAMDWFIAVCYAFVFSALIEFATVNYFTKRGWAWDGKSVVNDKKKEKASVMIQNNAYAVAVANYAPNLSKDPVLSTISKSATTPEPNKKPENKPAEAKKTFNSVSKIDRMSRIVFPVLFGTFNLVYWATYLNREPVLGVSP

In [1], `NC(=O)CN1CCCC1=O` gave an AC50 above 30 µM.

With `C[N@+]1(CCF)[C@@H]2CC[C@H]1C[C@@H](OC(=O)C(O)(c1ccccc1)c1ccccc1)C2`, the AC50 in assay [2] turned out to be 0.2 µM.

Turning to `Cn1c(=O)cc(N2CCC[C@@H](N)C2)n(Cc2ccccc2C#N)c1=O` [ALOGLIPTIN], the AC50 on Progesterone receptor was above 30 µM; in assay [2], above 10 µM; in [3], above 30 µM; on Androgen receptor [4] it was above 30 µM; at D(1A) dopamine receptor it was above 10 µM; in assay [5], above 10 µM.

Regarding `CCN1CCCC1CNC(=O)c1cc(S(=O)(=O)CC)c(N)cc1OC` (stereo unspecified) [AMISULPRIDE], the AC50 in [1] was above 30 µM.

For the compound `O=C1CN=C(c2ccccn2)c2cc(Br)ccc2N1` [BROMAZEPAM], the AC50 at Androgen receptor [4] was above 10 µM.

In the case of `Oc1ccc2c(c1)[C@@]13CCCC[C@@]1(O)[C@@H](C2)N(CC1CCC1)CC3` [BUTORPHANOL], the AC50 (at Androgen receptor [6]; on Androgen receptor [7]; in [1]) was above 30 µM throughout.

`C=C1/C(=C\C=C2/CCC[C@]3(C)[C@@H]([C@H](C)/C=C/[C@@H](O)C4CC4)CC[C@@H]23)C[C@@H](O)C[C@@H]1O` [CALCIPOTRIENE]: the values for the half-maximal activity concentration (AC50) (on Androgen receptor [6]; at Androgen receptor [7]; in assay [5]) were 28 µM, above 30 µM and above 30 µM, respectively.

On to `CCN(CC)C(=O)Nc1ccc(OCC(O)CNC(C)(C)C)c(C(C)=O)c1` (stereo unspecified) [CELIPROLOL], for which the AC50 on Androgen receptor [6] and on Androgen receptor [7] was above 30 µM in each case.

Consider `CC(=O)[C@@]1(O)CC[C@H]2[C@@H]3C=C(Cl)C4=CC(=O)[C@@H]5C[C@@H]5[C@]4(C)[C@H]3CC[C@@]21C` [CYPROTERONE], for which the AC50 on D(1A) dopamine receptor was above 10 µM.

For the compound `CC(=O)OCC(=O)[C@@]1(O)[C@H](C)C[C@H]2[C@@H]3CCC4=CC(=O)C=C[C@]4(C)[C@@]3(F)[C@@H](O)C[C@@]21C` [DEXAMETHASONE ACETATE], the AC50 is above 30 µM on Progesterone receptor, above 10 µM in assay [2], above 30 µM in assay [3] and above 10 µM in assay [5].

In the case of `CCCCCCCCCCCCCCCCCCCCCC(=O)Nc1ccn([C@@H]2O[C@H](CO)[C@@H](O)[C@@H]2O)c(=O)n1` [ENOCITABINE], the AC50 at Androgen receptor [6] and at Androgen receptor [7] was above 30 µM throughout.

`CCN(CC)CCN1C(=O)CN=C(c2ccccc2F)c2cc(Cl)ccc21` [FLURAZEPAM]: the AC50 in assay [5] worked out at 5.47 µM.

In the case of `CC(=O)[C@]1(O)Cc2c(O)c3c(c(O)c2[C@@H](O[C@H]2C[C@H](N)[C@H](O)[C@H](C)O2)C1)C(=O)c1ccccc1C3=O` [IDARUBICIN], at Androgen receptor [7], the AC50 turned out to be 17 µM.

Regarding `Nc1cc(-c2ccncc2)c[nH]c1=O` [INAMRINONE], the values for the AC50 on Progesterone receptor and at Androgen receptor [4] were above 20 µM and above 30 µM, respectively.

As to `COc1cc2c(cc1OC)C(CCc1ccc(Cl)cc1)N(C)CC2` (stereo unspecified) [METHOPHOLINE], the AC50 at Androgen receptor [4] was above 30 µM.

As for `Cc1ncc2n1-c1ccc(Cl)cc1C(c1ccccc1F)=NC2` [MIDAZOLAM], the results for the AC50 (at Progesterone receptor; in assay [5]) were above 30 µM and above 10 µM, respectively.

Turning to `COc1ccc(-c2noc(CC(=O)O)c2-c2ccc(OC)cc2)cc1` [MOFEZOLAC], the AC50 on Androgen receptor [6] and at Androgen receptor [7] was above 30 µM throughout.

As for `C#CCOc1ccc(N)cc1C(=O)NCCCC` [PARSALMIDE], the AC50 on Androgen receptor [6] and on Androgen receptor [7] was above 30 µM each time.

Take `COc1ccc2nc3cc(Cl)ccc3c(Nc3cc(CN4CCCC4)c(O)c(CN4CCCC4)c3)c2n1` [PYRONARIDINE]: the AC50 at Androgen receptor [6] was above 10 µM; at Androgen receptor [7], above 30 µM.

On to `OCc1cc(C(O)CNCCCCCCOCCCCc2ccccc2)ccc1O` (stereo unspecified) [SALMETEROL], for which the AC50 on D(1A) dopamine receptor is above 10 µM.

`Cn1cnc2c(F)c(Nc3ccc(Br)cc3Cl)c(C(=O)NOCCO)cc21` [SELUMETINIB]: the AC50 on Progesterone receptor is above 30 µM; in assay [2] it was above 10 µM; in assay [3], above 30 µM; on D(1A) dopamine receptor, above 10 µM; in assay [5], above 10 µM.

Take `NC1CCN(c2nc3c(cc2F)c(=O)c(C(=O)O)cn3-c2ccc(F)cc2F)C1` (stereo unspecified) [TOSUFLOXACIN]: the AC50 on Androgen receptor [6] and at Androgen receptor [7] was above 30 µM each time.
